Measured values taken from patent US7893299B2, “Interleukin-1 and tumor necrosis factor-αmodulators; syntheses of such modulators and methods of using such modulators” (Nereus Pharmaceuticals, Inc., priority 2005, dated 2011).
Like-named read-outs stand apart in the source and are kept apart here.

What was measured:
[1] = system: Panc1 and HS766T; experiment: TRAIL resistance of human pancreatic cancer cell lines; format: cell-based
Excerpt: (§1) Novel diterpene inhibitors of NFκB derived from acanthoic acid (NPI-1342 (Formula IIB-a1) and NPI-1387; compound 24 under scheme 4 above) show measurable effects in human pancreatic cancer cell lines in vitro. Seven of the nine cell lines were moderately sensitive to apoptosis induced by death receptor ligand Tumor Necrosis Factor (TNF) related apoptosis-inducing ligand (TRAIL). […] Specific silencing of NFkB/p65 expression mimicked these effects. Furthermore, combination treatment of Salinosporamide A and either NPI-1342 or NPI-1387 led to induction of apoptosis as measured by PI FACS analysis. Specifically, levels of DNA fragmentation increased from 4% to 50% in HS766T cells and from 4% to 52% in Panc1 cells. The inhibitory effects of NPI-1342, NPI-1387 on NFκB were evaluated by Electromobility Shift Assays and confirmed by confocal microscopy.

[2] = system: HS766T cells; experiment: apoptosis by PI FACS analysis, HS766T; format: cell-based, human; conditions: combination treatment with Salinosporamide A, increased from 4%
Excerpt: as §1

[3] = system: Panc1 cells; experiment: apoptosis by PI FACS analysis, Panc1; format: cell-based, human; conditions: combination treatment with Salinosporamide A, increased from 4%
Excerpt: as §1

[4] = system: TNF-α and IL-1 production; conditions: approximately 0.1 to approximately 1.0 microgram/ml for 48 hours; cited from earlier work
[5] = system: IL-6 or IFN-γ production; conditions: under the same conditions; cited from earlier work
[6] = system: silicosis (chronic lung inflammation) and cirrhosis (liver inflammation and hepatic fibrosis); conditions: mice with silicosis and cirrhosis; cited from earlier work
[7] = rat, in vivo; cited from earlier work
[8] = mice, cited from earlier work; for toxicity (in words): mice and rats
[9] = system: RPMI 8226 (MM); experiment: 48 hr cytotoxicity, RPMI 8226; format: cell-based, human; conditions: Homo sapiens, RPMI-8226, 48 h
Method: (§2) Human colon adenocarcinoma HT-29 (ATCC# HTB-38), prostate adenocarcinoma PC-3 (ATCC# CRL-1435), breast adenocarcinoma MDA-MB231 (ATCC# HTB-26), Multiple Myeloma RPMI 8226 (ATCC# CCL-155) and U266 (ATCC # TIB-196) cell lines and human normal fibroblast CCD-27sk (ATCC# CRL-1475) were all purchased from ATCC (Manassas, Va.). The cells were maintained in their respective ATCC recommended culture media at 37° C., 5% CO2 and 95% humidified air.
(§3) The cytotoxicity assays were performed by seeding individual cell lines at appropriate density in the 96 well flat-bottomed plates and allowed to attach for 24 hours at 37° C., 5% CO2 and 95% humidified air (RPMI 8226 and U266 cells were plated in 96 well plates on the day of compound addition). Serially diluted NPI-1387 was added in triplicate to cells at concentrations ranging from 160 nM to 20 μM. Final concentration of 0.25% (v/v) DMSO was used as the vehicle control. Cell viability was assessed 48 hours later by measuring the fluorescence of the reduction product of Resazurin by a Fusion microplate fluorometer (PerkinElmer) with λex=535 nm and λem=590 nm filters. The IC50 values (the drug concentration at which 50% of the maximal observed cytotoxicity is established) were calculated in XLFit 3.0 or XLFit 4.0 (ID Business Solutions Ltd) using a sigmoidal dose response model.

[10] = system: U266 (MM); experiment: 48 hr cytotoxicity, U266; format: cell-based, human; conditions: Homo sapiens, U-266, 48 h
Method: (§4) B16-F10 (ATCC; CRL-6475), DU 145 (ATCC; HTB-81), HEK293 (ATCC; CRL-1573), HT-29 (ATCC; HTB-38), LoVo (ATCC; CCL-229), MDA-MB-231 (ATCC; HTB-26), MIA PaCa-2 (ATCC; CRL-1420), NCI-H292 (ATCC; CRL-1848), OVCAR-3 (ATCC, HTB-161), PANC-1 (ATCC; CRL-1469), PC-3 (ATCC; CRL-1435), RPMI 8226 (ATCC; CCL-155) and U266 (ATCC; TIB-196) are maintained in appropriate culture media. The cells are cultured in an incubator at 37° C. in 5% CO2 and 95% humidified air.
(§5) For cell growth inhibition assays, B16-F10, DU 145, HEK293, HT-29, LoVo, MDA-MB-231, MIA PaCa-2, NCI-H292, OVCAR-3, PANC-1, PC-3, RPMI 8226 and U266 cells are seeded at 1.25×10^3, 5×10^3, 1.5×10^4, 5×10^3, 5×10^3, 1×10^4, 2×10^3, 4×10^3, 1×10^4, 7.5×10^3, 5×10^3, 2×10^4, 2.5×10^4 cells/well respectively in 90 μl complete media into Corning 3904 black-walled, clear-bottom tissue culture plates. 20 mM stock solutions of compounds of Formula II, IIA, and IIB are prepared in 100% DMSO, aliquoted and stored at −80° C. Compounds of Formula II, IIA, and IIB are serially diluted and added in triplicate to the test wells resulting in final concentrations ranging from of 20 μM to 0.2 pM. […]
(§6) Following 48 hours of drug exposure, 10 μl of 0.2 mg/ml resazurin (obtained from Sigma-Aldrich Chemical Co.) in Mg^2+, Ca^2+ free phosphate buffered saline is added to each well and the plates are returned to the incubator for 3-6 hours. Since living cells metabolize Resazurin, the fluorescence of the reduction product of Resazurin is measured using a Fusion microplate fluorometer (Packard Bioscience) with λex=535 nm and λem=590 nm filters. […]
(§7) The cytotoxicity assays were performed by seeding individual cell lines at appropriate density in the 96 well flat-bottomed plates and allowed to attach for 24 hours at 37° C., 5% CO2 and 95% humidified air (RPMI 8226 and U266 cells were plated in 96 well plates on the day of compound addition). […] Cell viability was assessed 48 hours later by measuring the fluorescence of the reduction product of Resazurin by a Fusion microplate fluorometer (PerkinElmer) with λex=535 nm and λem=590 nm filters. […]

[11] = system: PC3 (Prostate); experiment: 48 hr cytotoxicity, PC-3; format: cell-based, human; conditions: Homo sapiens, 48 h
Method: as §4, §5, §6, §7

[12] = system: HT-29 (Colon); experiment: 48 hr cytotoxicity, HT-29; format: cell-based, human; conditions: Homo sapiens, HT-29, 48 h
Method: as §2, §3

[13] = system: MDA-MB-231 (Breast); experiment: 48 hr cytotoxicity, MDA-MB-231; format: cell-based, human; conditions: Homo sapiens, MDA-MB-231, 48 h
Method: as §4, §5, §6, §7

For `C=C[C@@]1(C)CCC=C2[C@H]1CC[C@@H]1[C@](C)(C(=O)NC3CCCCC3)CCC[C@@]21C` (stereo in doubt) [Formula (IIB-A1), N-Cyclohexylamide Derivative of TTL], the TRAIL resistance [1] was “reversed TRAIL resistance”, the “levels of DNA fragmentation” value [2] was 50% and the “levels of DNA fragmentation” value [3] was 52%.
For `C=C[C@@]1(C)CC=C2[C@@H](CC[C@@H]3[C@](C)(C(=O)O)CCC[C@@]23C)C1` [Formula (I), acanthoic acid], the “inhibition of the TNF-α and IL-1 production” value [4] is listed as “approximately 90%”, the “production of IL-6 or IFN-γ” value [5] is listed as “not affected” and the “histologic analysis: fibrotic granulomas and cirrotic liver cells” value [6] is listed as “substantial reduction of fibrotic granulomas and a remarkable recovery of the cirrotic liver cells”. For the same molecule, the “minimum lethal dose (MLD)” value [7] was 1000 mg/kg, the LD ([8]; orally) was > 300 mg/100 g of body weight and the “toxicity (in words)” value [8] was “minimal toxicity”. The “toxicity (in words)” value ([8]; listed as Compound 1) was “very little toxicity”.
`C=CC(=O)[C@]1(C)CCC[C@@]2(C)C3CCC4C[C@@]3(CCC21)CC4=C` (stereo partly drawn) [NPI-1388] gave an IC50 [9] of 4.1 ± 1.1 µM, an IC50 [10] of 8.6 ± 6.4 µM and an IC50 [11] of 10 ± 3 µM. The IC50 [12] was 17 ± 4 µM and the IC50 [13] was 14 ± 5 µM.
